From patent publication US11535643B2, “Macrolides with modified desosamine sugars and uses thereof” (President and Fellows of Harvard College, priority 2015, dated 2022)
In brackets after ≈: the same amount, converted by molar mass. Read-outs that look alike come from different tables or passages of the source.

What was measured:
Format in all cases: cell-based
S. aureus = assay: Broth dilution MIC determination (CLSI) against S. aureus strains; settings: Staphylococcus aureus
How it was run: (§1)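 Strains, including multidrug-resistant and macrolide-resistant ones, were exposed to macrolides in broth dilution per CLSI standards, and the lowest inhibiting concentration was recorded as MIC. Azithromycin and solithromycin were run alongside.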

S. pyogenes = assay: Broth dilution MIC determination (CLSI) against S. pyogenes strains; settings: Streptococcus pyogenes
How it was run: as §1

E. coli = assay: Broth dilution MIC determination (CLSI) against E. coli strains; settings: Escherichia coli
How it was run: as §1

H. influenzae = assay: Broth dilution MIC determination (CLSI) against H. influenzae strains; settings: Haemophilus influenzae
Description: Minimum inhibitory concentrations (MICs) for macrolides described herein have been determined for unique strains of S. aureus, S. pneumoniae, S. pyogenes, E. faecalis, E. coli, A. baumannii, K. pneumoniae, P. aeruginosa, and H. influenzae, including several multidrug-resistant strains, with a special focus on macrolide resistant mechanisms. Azithromycin and solithromycin were included as control compounds. CLSI standard procedures for broth dilution MIC determination were used. Data for exemplary compounds described herein is shown in Tables M1-M7 and in Tables N1-N4.

K. pneumoniae = assay: Broth dilution MIC determination (CLSI) against K. pneumoniae strains; settings: Klebsiella pneumoniae
How it was run: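 CLSI broth-dilution MICs across a panel including multidrug- and macrolide-resistant strains, with azithromycin and solithromycin as control compounds.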

E. faecalis = assay: Broth dilution MIC determination (CLSI) against E. faecalis strains; settings: Enterococcus faecalis
How it was run: as §1

P. aeruginosa = assay: Broth dilution MIC determination (CLSI) against P. aeruginosa strains; settings: Pseudomonas aeruginosa
How it was run: as §1

A. baumannii = assay: Broth dilution MIC determination (CLSI) against A. baumannii strains; settings: Acinetobacter baumannii
How it was run: as §1

S. pneumoniae = assay: Broth dilution MIC determination (CLSI) against S. pneumoniae strains; settings: Streptococcus pneumoniae
How it was run: as §1

[1] = ATCC29213, ATCC29213, read-out: MIC S. aureus ATCC29213
[2] = MRSA / USA100, MRSA: USA100, read-out: MIC S. aureus MRSA: USA100
[3] = MRSA / USA300, MRSA: USA300, read-out: MIC S. aureus MRSA: USA300
[4] = USA600, USA600, GISA, read-out: MIC S. aureus USA600, GISA
[5] = read-out: MIC S. aureus erm A genotype
[6] = ATCC19615, ATCC19615, read-out: MIC S. pyogenes ATCC19615
[7] = macrolide-resistant, read-out: MIC S. pyogenes macrolide-resistant
[8] = ATCC25922, ATCC25922, read-out: MIC E. coli ATCC25922
[9] = read-out: MIC E. coli CTX-M-14, CTX-M-14
[10] = read-out: MIC E. coli NDM-1, NDM-1
[11] = read-out: MIC E. coli TEM-1, TEM-1
[12] = ATCC49247, ATCC49247, read-out: MIC H. influenzae ATCC49247
[13] = erythro > 4, azithro 1, read-out: MIC H. influenzae erythro > 4, azithro 1
[14] = ATCC10031, ATCC10031, read-out: MIC K. pneumoniae ATCC10031
[15] = KPC-2, read-out: MIC K. pneumoniae KPC-2
[16] = SHV-12, read-out: MIC K. pneumoniae SHV-12
[17] = TEM-10, read-out: MIC K. pneumoniae TEM-10
[18] = ATCC29212, ATCC29212, read-out: MIC E. faecalis ATCC29212
[19] = Vancomycin-resistant, read-out: MIC E. faecalis Vancomycin-resistant
[20] = ATCC27853, read-out: MIC P. aeruginosa ATCC27853
[21] = read-out: MIC P. aeruginosa HPA101-1477
[22] = ATCC19606, ATCC19606, read-out: MIC A. baumannii ATCC19606
[23] = IMP-4, read-out: MIC A. baumannii IMP-4
[24] = chromosomal class C, read-out: MIC A. baumannii chromosomal class C
[25] = imipenem-resistant, read-out: MIC A. baumannii imipenem-resistant
[26] = ATCC49619, ATCC49619, read-out: MIC S. pneumoniae ATCC49619
[27] = erm B + mef A genotype, read-out: MIC S. pneumoniae erm B + mef A genotype
[28] = erm B + tet(M, O) genotype, read-out: MIC S. pneumoniae erm B + tet(M, O) genotype
[29] = read-out: MIC S. pneumoniae mef A genotype, mef A genotype
[30] = read-out: MIC S. pneumoniae mef A genotype, mef A genotype, first of two such columns (c3)

Structure (SMILES)	MIC (S. aureus; [1])	MIC (S. aureus; [2])	MIC (S. aureus; [3])	MIC (S. aureus; [4])	MIC (S. aureus; [5])	MIC (S. pyogenes; [6])	MIC (S. pyogenes; [7])	MIC (E. coli; [8])	MIC (E. coli; [10])	MIC (H. influenzae; [12])	MIC (H. influenzae; [13])	MIC (K. pneumoniae; [14])	MIC (K. pneumoniae; [15])	MIC (E. faecalis; [18])	MIC (E. faecalis; [19])	MIC (P. aeruginosa; [20])	MIC (A. baumannii; [22])	MIC (A. baumannii; [25])	MIC (S. pneumoniae; [26])	MIC (S. pneumoniae; [27])	other results
CC[C@H]1OC(=O)[C@@](C)(F)C(=O)[C@H](C)[C@@H](O[C@@H]2O[C@H](C)C[C@H](N(C)C)[C@H]2O)[C@](C)(OC)C[C@@H](C)C(=O)[C@H](C)[C@H]2N(CCCCn3cc(-c4cccc(N)c4)nn3)C(=O)O[C@]12C [Solithromycin, solithromycin, reference compound]	0.125 µg/mL (≈ 0.148 µM)	> 32 µg/mL	1 µg/mL (≈ 1.18 µM)	> 32 µg/mL	> 32 µg/mL	< 0.0312 µg/mL	0.0625 µg/mL (≈ 0.074 µM)	32 µg/mL (≈ 37.9 µM)	> 32 µg/mL	4 µg/mL (≈ 4.73 µM)	2 µg/mL (≈ 2.37 µM)	8 µg/mL (≈ 9.47 µM)	> 32 µg/mL	< 0.0312 µg/mL	32 µg/mL (≈ 37.9 µM)	> 32 µg/mL	8 µg/mL (≈ 9.47 µM)	4 µg/mL (≈ 4.73 µM)	< 0.0312 µg/mL	0.25 µg/mL	MIC (E. coli; [9]): > 32 µg/mL; MIC (E. coli; [11]): 32 µg/mL (≈ 37.9 µM); MIC (K. pneumoniae; [16]): > 32 µg/mL; MIC (K. pneumoniae; [17]): > 32 µg/mL; MIC (P. aeruginosa; [21]): > 32 µg/mL; MIC (A. baumannii; [23]): > 32 µg/mL; MIC (A. baumannii; [24]): 8 µg/mL (≈ 9.47 µM); MIC (S. pneumoniae; [28]): < 0.0312 µg/mL; MIC (S. pneumoniae; [29]): 0.125 µg/mL (≈ 0.148 µM)
C=CCOC(=O)NCC1CC(N(C)C)C(O)[C@H](O[C@@H]2[C@@H](C)C(=O)[C@@H](C)C(=O)O[C@H](CC)[C@@]3(C)OC(=O)N(CCCCn4cc(-c5cccc(N)c5)nn4)[C@@H]3[C@@H](C)NC[C@H](C)C[C@@]2(C)OC)O1 (stereo partly shown) [FSM-21795]	16 µg/mL (≈ 17.3 µM)	> 32 µg/mL	> 32 µg/mL	> 32 µg/mL	> 32 µg/mL	0.0625 µg/mL (≈ 0.0674 µM)	2 µg/mL (≈ 2.16 µM)	16 µg/mL (≈ 17.3 µM)	> 32 µg/mL	4 µg/mL (≈ 4.31 µM)	8 µg/mL (≈ 8.63 µM)	8 µg/mL (≈ 8.63 µM)	> 32 µg/mL	1 µg/mL (≈ 1.08 µM)	> 32 µg/mL	32 µg/mL (≈ 34.5 µM)	32 µg/mL (≈ 34.5 µM)	32 µg/mL (≈ 34.5 µM)	0.25 µg/mL (≈ 0.27 µM)	> 32 µg/mL	MIC (S. pneumoniae; [28]): 0.0625 µg/mL; MIC (S. pneumoniae; [29]): 16 µg/mL (≈ 17.3 µM); MIC (S. pneumoniae; [30]): 4 µg/mL (≈ 4.31 µM)
CC[C@H]1OC(=O)[C@H](C)C(=O)[C@H](C)[C@@H](O[C@@H]2OC(CNC(=O)C(Cl)Cl)CC(N(C)C)C2O)[C@](C)(OC)C[C@@H](C)CN[C@H](C)[C@H]2N(CCCCn3cc(-c4cccc(N)c4)nn3)C(=O)O[C@]12C (stereo partly shown) [FSM-21842]	4 µg/mL (≈ 4.19 µM)	> 32 µg/mL	> 32 µg/mL	> 32 µg/mL	> 32 µg/mL	≤ 0.0312 µg/mL	0.5 µg/mL (≈ 0.524 µM)	16 µg/mL (≈ 16.8 µM)	32 µg/mL (≈ 33.5 µM)	4 µg/mL (≈ 4.19 µM)	4 µg/mL (≈ 4.19 µM)	4 µg/mL (≈ 4.19 µM)	> 32 µg/mL	1 µg/mL (≈ 1.05 µM)	> 32 µg/mL	> 32 µg/mL	32 µg/mL (≈ 33.5 µM)	> 32 µg/mL	≤ 0.0312 µg/mL	8 µg/mL	MIC (E. coli; [9]): > 32 µg/mL; MIC (E. coli; [11]): 16 µg/mL (≈ 16.8 µM); MIC (K. pneumoniae; [16]): > 32 µg/mL; MIC (K. pneumoniae; [17]): 32 µg/mL (≈ 33.5 µM); MIC (P. aeruginosa; [21]): > 32 µg/mL; MIC (A. baumannii; [23]): > 32 µg/mL; MIC (A. baumannii; [24]): > 32 µg/mL; MIC (S. pneumoniae; [28]): ≤ 0.0312 µg/mL; MIC (S. pneumoniae; [29]): 1 µg/mL (≈ 1.05 µM); MIC (S. pneumoniae; [30]): 0.125 µg/mL (≈ 0.131 µM)
